Here are results for 15 molecules from ChEMBL document CHEMBL1140269, “Amino-substituted heterocycles as isosteres of trans-cinnamides: design and synthesis of heterocyclic biaryl sulfides as potent antagonists of LFA-1/ICAM-1 binding” (Bioorg Med Chem Lett, 2005).

SMILES strings stand for the structures.

Assay [1] deals with T1, Intercellular adhesion molecule (ICAM-1), Integrin alpha-L/beta-2 (Homo sapiens, UniProt P05107+P20701). In words: Inhibitory concentration against integrin LFA-1/ICAM-1 binding complex. The format is protein-complex assay.
T1 sequence (P20701 whole entry): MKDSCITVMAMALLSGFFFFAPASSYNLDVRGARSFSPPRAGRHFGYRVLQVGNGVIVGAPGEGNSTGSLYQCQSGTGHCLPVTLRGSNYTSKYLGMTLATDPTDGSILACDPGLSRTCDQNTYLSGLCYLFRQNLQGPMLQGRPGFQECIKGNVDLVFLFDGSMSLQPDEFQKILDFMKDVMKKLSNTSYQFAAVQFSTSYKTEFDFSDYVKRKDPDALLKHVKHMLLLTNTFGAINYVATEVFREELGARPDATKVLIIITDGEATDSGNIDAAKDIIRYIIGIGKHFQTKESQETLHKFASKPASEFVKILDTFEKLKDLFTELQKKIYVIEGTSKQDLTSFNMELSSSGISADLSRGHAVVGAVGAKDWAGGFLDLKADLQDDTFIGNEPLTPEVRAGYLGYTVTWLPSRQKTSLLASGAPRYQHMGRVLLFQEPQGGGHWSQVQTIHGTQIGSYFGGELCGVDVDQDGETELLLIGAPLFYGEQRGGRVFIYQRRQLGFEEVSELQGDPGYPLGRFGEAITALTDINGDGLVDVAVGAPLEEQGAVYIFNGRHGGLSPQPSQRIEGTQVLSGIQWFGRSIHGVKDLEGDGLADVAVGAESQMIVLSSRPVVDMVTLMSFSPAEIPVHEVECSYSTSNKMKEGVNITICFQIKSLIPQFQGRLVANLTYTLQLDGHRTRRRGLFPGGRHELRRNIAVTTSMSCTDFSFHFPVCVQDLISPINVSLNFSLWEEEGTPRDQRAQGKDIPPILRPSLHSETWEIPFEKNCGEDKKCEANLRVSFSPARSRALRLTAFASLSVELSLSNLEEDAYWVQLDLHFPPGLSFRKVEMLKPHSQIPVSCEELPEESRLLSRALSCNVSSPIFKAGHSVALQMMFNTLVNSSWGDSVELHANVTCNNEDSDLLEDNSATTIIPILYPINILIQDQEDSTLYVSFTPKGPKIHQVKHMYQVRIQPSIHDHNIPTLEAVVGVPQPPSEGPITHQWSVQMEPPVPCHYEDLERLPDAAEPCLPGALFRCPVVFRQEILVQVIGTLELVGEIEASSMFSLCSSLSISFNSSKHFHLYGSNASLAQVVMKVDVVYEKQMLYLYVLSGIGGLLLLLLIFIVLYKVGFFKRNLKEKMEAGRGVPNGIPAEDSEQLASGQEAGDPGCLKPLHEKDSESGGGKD
T1 sequence (P05362 whole entry, further chain): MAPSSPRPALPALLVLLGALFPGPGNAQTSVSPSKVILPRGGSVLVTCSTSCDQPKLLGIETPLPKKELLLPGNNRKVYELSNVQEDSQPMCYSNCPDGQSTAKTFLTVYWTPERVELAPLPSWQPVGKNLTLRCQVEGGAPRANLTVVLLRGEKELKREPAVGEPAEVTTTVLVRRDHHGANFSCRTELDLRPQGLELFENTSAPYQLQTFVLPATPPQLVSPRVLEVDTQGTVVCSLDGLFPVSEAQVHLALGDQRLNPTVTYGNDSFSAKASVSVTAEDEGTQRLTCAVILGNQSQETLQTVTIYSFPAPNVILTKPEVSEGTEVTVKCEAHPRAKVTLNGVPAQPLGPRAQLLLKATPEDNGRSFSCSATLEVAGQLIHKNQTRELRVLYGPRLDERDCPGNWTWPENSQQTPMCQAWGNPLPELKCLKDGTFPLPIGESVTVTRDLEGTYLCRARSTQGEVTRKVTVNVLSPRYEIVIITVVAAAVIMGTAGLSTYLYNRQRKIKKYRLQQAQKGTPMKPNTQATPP
T1 sequence (P05107 whole entry): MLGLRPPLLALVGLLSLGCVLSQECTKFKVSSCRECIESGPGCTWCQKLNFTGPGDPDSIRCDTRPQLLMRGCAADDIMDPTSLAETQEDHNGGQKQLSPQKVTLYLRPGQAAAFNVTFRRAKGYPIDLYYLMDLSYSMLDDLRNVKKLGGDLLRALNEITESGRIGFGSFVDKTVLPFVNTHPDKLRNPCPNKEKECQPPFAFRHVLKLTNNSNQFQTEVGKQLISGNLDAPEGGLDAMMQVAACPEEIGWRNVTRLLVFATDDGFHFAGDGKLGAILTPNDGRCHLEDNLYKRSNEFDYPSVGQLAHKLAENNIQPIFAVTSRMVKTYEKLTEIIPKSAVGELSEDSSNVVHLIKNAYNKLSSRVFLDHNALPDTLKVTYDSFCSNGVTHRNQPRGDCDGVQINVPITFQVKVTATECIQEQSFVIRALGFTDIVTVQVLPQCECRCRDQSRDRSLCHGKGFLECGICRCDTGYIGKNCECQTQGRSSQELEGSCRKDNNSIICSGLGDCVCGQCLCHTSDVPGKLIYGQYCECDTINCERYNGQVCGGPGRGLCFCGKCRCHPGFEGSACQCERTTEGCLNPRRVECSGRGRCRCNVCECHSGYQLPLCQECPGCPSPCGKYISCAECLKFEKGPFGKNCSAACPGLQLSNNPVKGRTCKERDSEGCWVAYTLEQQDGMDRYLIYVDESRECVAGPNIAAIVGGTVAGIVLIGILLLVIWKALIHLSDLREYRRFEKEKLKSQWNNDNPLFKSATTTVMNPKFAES
In assay [2] the target is T1, Intercellular adhesion molecule (ICAM-1), Integrin alpha-L/beta-2. The assay can be described thus: Effective concentration to measure the adherence of LFA-1 expressing JY8 cells to immobilized ICAM-1 in cell-based adhesion assay.
Assay [3] has as its target T2, Intercellular adhesion molecule (ICAM-1), Integrin alpha-L/beta-2 (Homo sapiens) (UniProt P20701+P05362+P05107). The assay can be described thus: Inhibitory activity against ICAM-1/integrin LFA-1 binding complex at 1 uM concentration. The format is protein-complex assay.
The target in assay [4] is T2, Intercellular adhesion molecule (ICAM-1), Integrin alpha-L/beta-2 (Homo sapiens). In words: Inhibitory activity against ICAM-1/integrin LFA-1 binding complex at 20 uM concentration. Format: protein-complex assay.

For `CC(C)c1ccccc1Sc1ccc(-c2cc(N3CCCC(C(=O)O)C3)ncn2)cc1C(F)(F)F` (configuration not stated), the 50% inhibitory concentration (IC50) in assay [1] amounted to 120 nM. The same molecule registered a half-maximal effective concentration (EC50) in assay [2] of 90 nM.

Regarding `CCN1CCN(c2cc(-c3ccc(Sc4ccccc4C(C)C)c(C(F)(F)F)c3)ccn2)CC1`, the inhibition in assay [3] is 54%.

Take `CC(C)c1ccccc1Sc1ccc(-c2ccnc(N3CCN(C)CC3)c2)cc1C(F)(F)F`: the inhibition in assay [3] amounted to 58%.

With `CC(C)c1ccccc1Sc1ccc(-c2cc(N3CCCC(c4nn[nH]n4)C3)ncn2)cc1C(F)(F)F` (configuration not stated), the concentration for half-maximal inhibition (IC50) in assay [1] is 51 nM. Moreover, a half-maximal response in assay [2] (EC50) required 20 nM.

`CC(C)c1ccccc1Sc1ccc(-c2ccnc(N3CCCC(C)(C)C3)c2)cc1C(F)(F)F`: in assay [3], the inhibition came out at 22%.

`CC(C)c1ccccc1Sc1ccc(-c2ccnc(N3CCCCCC3)c2)cc1C(F)(F)F` came in with an inhibition in assay [3] of 34%.

On to `CC1CCN(c2cc(-c3ccc(Sc4ccccc4C(C)C)c(C(F)(F)F)c3)ccn2)CC1`, for which the inhibition in assay [3] was 40%.

Consider `CC(C)c1ccccc1Sc1ccc(-c2csc(N3CCCCC3)n2)cc1C(F)(F)F`, for which the inhibition in assay [4] turned out to be 40%.

Consider `CC(C)c1ccccc1Sc1ccc(-c2ccnc(N3CCN(c4ccccn4)CC3)c2)cc1C(F)(F)F`, for which the inhibition in assay [3] was found to be 40%.

`CCCC1CCN(c2cc(-c3ccc(Sc4ccccc4C(C)C)c(C(F)(F)F)c3)ccn2)CC1` had an inhibition in assay [3] of 8%.

In assay [3], `CC(C)c1ccccc1Sc1ccc(-c2ccnc(N3CCN(C4CCCCC4)CC3)c2)cc1C(F)(F)F` returned an inhibition of 21%.

The molecule `CC(C)c1ccccc1Sc1ccc(-c2ccnc(N3CCN(c4cnccn4)CC3)c2)cc1C(F)(F)F` gave an inhibition in assay [3] of 82%.

As for `Cc1ccc(C)c(N2CCN(c3cc(-c4ccc(Sc5ccccc5C(C)C)c(C(F)(F)F)c4)ccn3)CC2)c1`, the inhibition in assay [3] stood at 0%.

Take `CC(C)c1ccccc1Sc1ccc(-c2ccnc(N3CCC(c4nnn[nH]4)CC3)c2)cc1C(F)(F)F`: the IC50 in assay [1] came to 51 nM.

Turning to `CC(=O)N[C@@H]1CCN(c2cc(-c3ccc(Sc4ccccc4C(C)C)c(C(F)(F)F)c3)ccn2)C1`, the IC50 in assay [1] was found to be 62 nM.

For orientation: IC50 means the concentration needed to halve the response being measured. A higher IC50 goes with weaker potency. For orientation: EC50 means the concentration that produces a half-maximal response. A higher EC50 goes with a need for much substance. As a reminder, the inhibition is the share of the control response that was lost under treatment. Low values mean little suppression, high ones strong suppression.
